Assay [1] addresses Transthyretin (Homo sapiens, UniProt P02766). The experiment in a line: Binding affinity to wild type TTR (unknown origin) expressed in Escherichia coli BL21/DE3 by Circular dichroism spectroscopy. In general terms: Circular dichroism is the unequal absorption of left and right circularly polarised light.
Assay [2] concerns the target Transthyretin (Homo sapiens, UniProt P02766, V50M). In words: Stabilization of TTR V30M mutant (unknown origin) assessed as inhibition of protein-mediated amyloid fibril formation.

By Kd is commonly meant the constant that tells how readily two partners part at equilibrium. In turn, `O=C(O)Cc1ccccc1Nc1c(Cl)cccc1Cl` [DICLOFENAC] returned a Kd on Transthyretin [1] of 0.06 µM.
On the same count and under the same terms, in the case of `O=C(O)c1ccccc1Nc1cccc(C(F)(F)F)c1` [FLUFENAMIC ACID] it was 0.03 µM.
Consider `O=C(CCc1ccc(O)cc1)c1c(O)cc(O)cc1O` [PHLORETIN], for which, at Transthyretin [2], the equilibrium dissociation constant (Kd) came out at 8.1 µM.
On the same count and under the same terms, in the case of `COc1cc(O)c(CC=C(C)C)c(O)c1C(=O)/C=C/c1ccc(O)cc1` [XANTHOHUMOL] it was 12 µM.

These data come from ChEMBL document CHEMBL4706567, “Transthyretin Amyloidogenesis Inhibitors: From Discovery to Current Developments” (J Med Chem, 2020).
